From patent US20230405118A1, “STAT-ACTIVATED MACROPHAGES, COMPOSITIONS, AND USES THEREOF” (THE GEORGE WASHINGTON UNIVERSITY, A CONGRESSIONALLY …, priority 2020, published 2023)

Experiments:
Type in all cases: cell-based, mouse
[1] = test system: M2 macrophages (bone marrow derived macrophages polarized with IL4/IL13); assay: M2 polarization of pre-treated BMDMs, CD206 marker by flow cytometry; settings: naïve BMDMs pre-treated with compound, then polarized to M2 with IL4/IL13; FIG. 1
Method: (§1) Bone marrow derived macrophages (BMDMs): For macrophage isolation, bone marrow from 6-12 weeks old C57BL/6 mouse was used following an IACUC approved protocol. Briefly, femurs and tibia bones were isolated after removing the skeletal muscles. The bone marrow was flushed with RPMI complete medium supplemented with non-essential amino acids. A single-cell suspension of bone marrow was prepared with repeated pipetting and incubated with 20 ng/mL of mouse recombinant M-CSF (Biolegend) at 37° C. for 4 days to differentiate into macrophages.
Flow cytometry: Flow cytometry was performed following the protocol described previously. Knox et al., Sci Rep. 2019 Oct. 10; 9(1):14824. doi: 10.1038/s41598-019-51403-6. Briefly, mice were euthanized following the IACUC protocol, and tumor cells were processed into a single cell suspension for analysis by flow cytometry with tumor digestion buffer. The following antibodies were used to stain cell surface markers expressed by different immune cells. All the antibodies were purchased from Biolegend (San Diego, CA) unless otherwise specified. Myeloid cell surface markers are as follows: APC anti-mouse CD80 (clone 16-10A1), PE/Cy7 anti-mouse CD206 (MMR) (clone C068C2), APC/Fire™ 750 anti-mouse CD45.2 (clone 104), FITC anti-mouse H-2 (clone M1/42), Brilliant Violet 785TM anti-mouse F4/80 (clone BM8), and Alexa Fluor® 700 anti-mouse CD3 (clone 17A2). […]

Arginase I = Arginase I gene expression by quantitative real-time PCR in pre-treated macrophages; settings: FIG. 2
Method: as §1
(§2) Bone marrow derived macrophages (BMDMs) were differentiated into macrophages with M-CSF. These naïve macrophages were pre-treated with Nexturastat A (NextA) or 6-nitrobenzo[b]thiophene-1,1-dioxide (Stattic) and polarized to M2 macrophages with IL4/IL13. Pre-treatment with NextA and Stattic decreased polarization of M2 macrophages as indicated by flow cytometry.
(§3) Further validation of M2 polarization markers at gene expression levels by quantitative real-time PCR indicate that Arginase I, TGFβ, and FIZZ1, which are tumor-promoting factors, were decreased. FIG. 2, FIG. 3, and FIG. 4.

TGFβ = TGFβ gene expression by quantitative real-time PCR in pre-treated macrophages; settings: FIG. 3
Method: as §1, §2, §3

FIZZ1 = FIZZ1 gene expression by quantitative real-time PCR in pre-treated macrophages; settings: FIG. 4
Method: as §1, §2, §3

Row | Arginase I expression level (M2 polarization marker) (Arginase I) | SMILES | polarization of M2 macrophages (CD206 as marker, flow cytometry) [1] | TGFβ expression level (M2 polarization marker) (TGFβ) | FIZZ1 expression level (M2 polarization marker) (FIZZ1)
1 | decreased | CCCCN(Cc1ccc(C(=O)NO)cc1)C(=O)Nc1ccccc1 [NextA, Nexturastat A] | decreased | decreased | decreased
2 | decreased | O=[N+]([O-])c1ccc2c(c1)S(=O)(=O)C=C2 [Stattic, 6-nitrobenzo[b]thiophene-1,1-dioxide] | decreased | decreased | decreased
